We go through 15 molecules from US20110230476A1, “PI3 KINASE INHIBITORS AND USES THEREOF” (AVILA THERAPEUTICS, INC., priority 2009, published 2011).

One experiment addresses T1, PI3Kα (p110α/p85α) (Homo sapiens, UniProt P42336).
T1 construct: purchased BPS Bioscience (San Diego, Calif.) or Millipore (Billerica, Mass.)
Description: HTRF assay, potency against active PI3Kα. In kind it is biochemical. The conditions noted are these: HTRF; [ATP]=50 μM, [di-C8-PIP2]=10 μM; 30 min pre-incubation; read-out: PI3Kα Inhibition. The gist of the method: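 Active p110/p85α lipid kinase reactions were started with ATP and run 30-60 minutes at 25 °C, then stopped and developed with HTRF detection mix. HTRF ratio converted to % inhibition against ±enzyme controls; IC50 from log[inhibitor] vs response, variable slope.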

The next experiment deals with Phospho-Akt(Ser473). Description: Dose response in SKOV3 cells as determined by Western blot. In kind it is cell-based. The conditions noted are these: Homo sapiens, SK-OV-3, 1 hr, Phospho-Akt normalized to total Akt, read-out: Immunoblot. As for the experimental part:
Dose Response in SKOV3 Cells as Determined by Western Blot
SKOV3 cells were plated in SKOV3 Growth Media (DMEM supplemented with 10% FBS and pen/strep) at a density of 4×10^5 cells per well of 12 well plates. Twenty four hours later the media was removed and replaced with 1 ml media containing test compound and 0.1% DMSO and cells were returned to the incubator for 1 hr. At the end of the hour, the media was removed and the cells were washed with PBS, then lysed and scraped into 30 ul of Cell Extraction Buffer (Biosource, Camarillo, Calif.) plus Complete Protease Inhibitor and PhosStop Phosphatase Inhibitor (Roche, Indianapolis, Ind.).
Cell debris was spun down at 13,000×g for 1 minute and the supernatant was taken as the cell lysate. Protein concentration of the lysate was determined by BCA Assay (Pierce Biotechnology, Rockford, Ill.) and 50 ug of protein was loaded per well onto a NuPAGE Novex 4-12% Bis-Tris gel (Invitrogen, Carlsbad, Calif.) then transferred to Immobilon PVDF-FL (Millipore, Billerica, Mass.).
The blot was blocked in Odyssey Blocking Buffer (Li-Cor Biosciences, Lincoln, Nebr.) for 1 hr then incubated overnight at 4° C. with mouse anti-Akt (#2920) and rabbit anti-Phospho-Akt(Ser473) (#9271)(Cell Signaling Technology, Boston, Mass.) antibodies, both diluted 1:1000 in PBS/Odyssey Buffer (1:1)+0.1% Tween-20. The blots were washed 3 times 5 minutes in PBS+0.2% Tween-20 then incubated for 1 hr at room temperature with fluorescently labeled secondary antibodies (Li-Cor) diluted 1:10000 in PBS/Odyssey Buffer (1:1)+0.1% Tween-20.
The blots were washed 2 times for 5 minutes in PBS+0.2% Tween-20, once in distilled water, then scanned on an Odyssey machine (Li-Cor). Band intensity was determined using the Odyssey software and Phopho-Akt signal was normalized to total Akt within samples, then expressed as a percentage of the untreated Phospho-Akt signal.
Background: A western blot detects proteins with antibodies after separation by electrophoresis.

For another experiment, the system named is PI3K. Description: PI3K HCT116 cellular assay (Western blot). In kind it is cell-based. The conditions noted are these: Homo sapiens, HCT-116, HCT116 colon cancer cells, 1 hour incubation, read-out: PI3K Inhibition. The method, then: PI3K HCT116 Cellular Assay
Selected compounds were assayed in HCT116 colon cancer cells. […] Cells were then washed with PBS, lysed and the protein lysates were then recovered and analyzed by Western blot.

In another experiment the target is T2, PI3Kγ (p120γ) (Homo sapiens, UniProt P48736).
T2 construct: purchased BPS Bioscience (San Diego, Calif.) or Millipore (Billerica, Mass.)
Description: HTRF assay, potency against active PI3Kγ. The format is biochemical. As to conditions: [ATP]=50 μM, [di-C8-PIP2]=10 μM, 30 min pre-incubation, read-out: PI3Kγ Inhibition. The text has this: Homogeneous Time Resolved Fluorescence (HTRF) Assay Protocol for Potency Assessment Against the Active Forms of PI3Kα, PI3Kβ, and PI3Kγ
The protocol below describes an end-point, competition-binding HTRF assay used to measure inherent potency of test compounds against active PI3Kα (p110α/p85α), PI3Kβ (p110β/p85α), and PI3Kγ (p120γ) enzymes. The mechanics of the assay platform are best described by the vendor (Millipore, Billerica, Mass.) on their website at the following URL: www.millipore.com/coa/tech1/74jt4z.
Briefly, Stop solution (Stop A, #33-007 and Stop B, #33-009; 3:1 ratio) and Detection Mix (from DMC, #33-015 with DMA, #33-011 and DMB, #33-013; 18:1:1 ratio) were prepared as recommended by the manufacturer about 2 hrs prior to use. Additionally, 1× reaction buffer (from 4× buffer stock# 33-003), 1.4× stocks of PI3Kα, PI3Kβ, and PI3Kγ enzymes from BPS Bioscience (San Diego, Calif.) or Millipore (Billerica, Mass.) with di-C8-PIP2 lipid substrate (#33-005), and a 4×ATP solution (#A7699 Sigma/Aldrich; St. Louis, Mo.) were prepared in 1× reaction buffer. 15 μL of PI3K enzymes and lipid substrate mix were pre-incubated in a Corning (#3573) 384-well, black, non-treated microtiter plate (Corning, N.Y.) for 30 min at 25° C. with a 0.5 μL volume of 50% DMSO and serially diluted compounds prepared in 50% DMSO. Lipid kinase reactions were started with the addition of 5 μL of ATP solution, mixed for 15 sec on a rotary plate shaker and incubated for 30-60 minutes at 25° C. Next, reactions were stopped with a 5 μL addition of Stop solution immediately followed by a 5 μL volume of Detection Mix. Stopped reactions were equilibrated for 1 and 18 hrs at room temperature and read in a Synergy^4 plate reader from BioTek (Winooski, Vt.) at λex330-80/λem620-35 and λem665-7.5. At the conclusion of each assay, the HTRF ratio from fluorescence emission values for each well was calculated and % Inhibition determined from averaged controls wells (+/−PI3K enzyme). % Inhibition values for each compound were then plotted against inhibitor concentration to estimate IC50 from log [Inhibitor] vs Response, Variable Slope model in GraphPad Prism from GraphPad Software (San Diego, Calif.).
[Reagent] used in optimized protocol: • [p110α/p85α]=0.5-1.5 nM, [ATP]=50 μM, [di-C8—PIP2]=10 μM • [p110β/p85α]=0.75 nM, [ATP]=50 μM, [di-C8—PIP2]=10 μM • [p120γ]=2-2.5 nM, [ATP]=50 μM, [di-C8—PIP2]=10 μM • (ATP KMapp for both enzymes was estimated to be 40-70 μM)
(In general: TR-FRET usually uses a lanthanide donor and a delayed reading to cut background.)

T1 sequence (P42336 whole entry): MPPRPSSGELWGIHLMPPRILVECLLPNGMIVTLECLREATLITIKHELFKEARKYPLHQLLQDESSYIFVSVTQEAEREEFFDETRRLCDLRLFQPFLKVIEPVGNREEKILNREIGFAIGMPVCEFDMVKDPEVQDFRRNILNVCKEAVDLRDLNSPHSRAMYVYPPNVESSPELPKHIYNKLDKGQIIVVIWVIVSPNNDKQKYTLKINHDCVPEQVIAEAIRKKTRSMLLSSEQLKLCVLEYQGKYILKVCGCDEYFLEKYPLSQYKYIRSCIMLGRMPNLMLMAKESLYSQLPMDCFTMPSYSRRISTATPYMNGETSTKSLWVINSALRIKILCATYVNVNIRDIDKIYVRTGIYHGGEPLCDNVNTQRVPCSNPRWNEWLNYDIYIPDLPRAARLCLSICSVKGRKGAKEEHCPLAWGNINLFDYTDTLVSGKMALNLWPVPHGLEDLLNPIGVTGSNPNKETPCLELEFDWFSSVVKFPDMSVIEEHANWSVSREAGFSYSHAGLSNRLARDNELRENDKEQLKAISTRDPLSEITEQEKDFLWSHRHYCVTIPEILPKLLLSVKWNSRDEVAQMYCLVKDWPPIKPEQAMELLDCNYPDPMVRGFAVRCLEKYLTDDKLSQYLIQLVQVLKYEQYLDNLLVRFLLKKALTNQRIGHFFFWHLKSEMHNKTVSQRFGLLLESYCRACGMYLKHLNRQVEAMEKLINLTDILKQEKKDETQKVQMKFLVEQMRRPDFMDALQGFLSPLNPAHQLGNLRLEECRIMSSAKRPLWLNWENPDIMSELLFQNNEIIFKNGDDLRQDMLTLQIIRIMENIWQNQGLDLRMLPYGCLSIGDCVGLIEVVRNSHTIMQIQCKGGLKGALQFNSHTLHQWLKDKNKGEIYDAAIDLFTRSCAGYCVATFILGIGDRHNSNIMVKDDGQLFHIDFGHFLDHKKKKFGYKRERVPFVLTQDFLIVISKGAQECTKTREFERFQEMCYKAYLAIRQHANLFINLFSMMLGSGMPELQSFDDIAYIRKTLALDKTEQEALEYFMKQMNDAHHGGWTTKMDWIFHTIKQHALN
T1 sequence (P27986 whole entry partner): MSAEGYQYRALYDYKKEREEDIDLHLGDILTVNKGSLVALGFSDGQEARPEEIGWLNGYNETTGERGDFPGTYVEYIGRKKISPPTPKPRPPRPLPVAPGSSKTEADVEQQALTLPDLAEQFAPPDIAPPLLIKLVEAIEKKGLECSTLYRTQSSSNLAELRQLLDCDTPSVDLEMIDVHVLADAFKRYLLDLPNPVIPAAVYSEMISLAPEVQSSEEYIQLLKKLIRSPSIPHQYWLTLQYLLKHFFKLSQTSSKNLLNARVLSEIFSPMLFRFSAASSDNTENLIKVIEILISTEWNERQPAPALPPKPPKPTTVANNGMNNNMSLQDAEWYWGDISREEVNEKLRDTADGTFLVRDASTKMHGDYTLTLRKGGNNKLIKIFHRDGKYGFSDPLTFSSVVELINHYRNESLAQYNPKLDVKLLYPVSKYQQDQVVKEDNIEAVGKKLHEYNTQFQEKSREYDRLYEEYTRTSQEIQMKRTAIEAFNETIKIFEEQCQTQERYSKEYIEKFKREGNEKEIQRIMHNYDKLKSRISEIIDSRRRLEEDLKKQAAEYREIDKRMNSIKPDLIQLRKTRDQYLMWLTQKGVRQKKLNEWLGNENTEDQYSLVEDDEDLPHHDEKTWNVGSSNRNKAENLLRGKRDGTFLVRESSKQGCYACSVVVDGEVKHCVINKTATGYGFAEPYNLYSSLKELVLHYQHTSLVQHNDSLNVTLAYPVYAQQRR
T2 sequence (P48736 whole entry): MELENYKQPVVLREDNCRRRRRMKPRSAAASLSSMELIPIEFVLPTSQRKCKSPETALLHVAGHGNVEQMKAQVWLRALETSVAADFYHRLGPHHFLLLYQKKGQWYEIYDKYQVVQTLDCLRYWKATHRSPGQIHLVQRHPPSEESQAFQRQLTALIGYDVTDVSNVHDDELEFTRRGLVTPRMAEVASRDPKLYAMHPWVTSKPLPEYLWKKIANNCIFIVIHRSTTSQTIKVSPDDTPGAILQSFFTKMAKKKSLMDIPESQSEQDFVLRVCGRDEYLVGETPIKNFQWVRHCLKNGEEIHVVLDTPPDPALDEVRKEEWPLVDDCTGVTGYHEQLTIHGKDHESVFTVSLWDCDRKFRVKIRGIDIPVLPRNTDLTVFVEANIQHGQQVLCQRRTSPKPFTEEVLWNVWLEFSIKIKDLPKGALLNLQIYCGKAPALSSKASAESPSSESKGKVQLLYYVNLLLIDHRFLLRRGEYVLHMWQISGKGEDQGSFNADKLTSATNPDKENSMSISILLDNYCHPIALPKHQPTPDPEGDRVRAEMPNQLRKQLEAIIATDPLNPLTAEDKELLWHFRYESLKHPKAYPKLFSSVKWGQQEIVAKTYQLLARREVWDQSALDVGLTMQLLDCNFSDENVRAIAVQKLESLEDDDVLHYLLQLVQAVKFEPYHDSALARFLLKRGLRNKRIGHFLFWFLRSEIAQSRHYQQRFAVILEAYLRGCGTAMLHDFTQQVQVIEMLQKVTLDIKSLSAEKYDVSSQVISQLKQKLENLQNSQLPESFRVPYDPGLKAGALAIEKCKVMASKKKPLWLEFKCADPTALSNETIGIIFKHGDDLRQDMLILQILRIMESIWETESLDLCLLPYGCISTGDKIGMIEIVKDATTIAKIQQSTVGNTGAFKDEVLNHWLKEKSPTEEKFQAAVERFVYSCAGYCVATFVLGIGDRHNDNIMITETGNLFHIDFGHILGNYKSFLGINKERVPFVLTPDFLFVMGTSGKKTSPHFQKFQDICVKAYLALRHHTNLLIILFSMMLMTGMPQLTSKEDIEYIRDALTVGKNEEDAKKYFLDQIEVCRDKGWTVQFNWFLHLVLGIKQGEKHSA

Consider `C=CC(=O)Nc1ccc(CCNC(=O)c2cc(-c3cnc(N)nc3)nc(N3CCOCC3)c2)cc1` [XII-2, N-(4-acrylamidophenethyl)-2-(2-aminopyrimidin-5-yl)-6-morpholinoisonicotinamide], for which the IC50 at PI3Kα (p110α/p85α) was 10 to 100 nM. For the same molecule, in the experiment with Phospho-Akt(Ser473), the EC50 is not below 1000 nM.

In the case of `C=CC(=O)Nc1ccc(OCc2cc3nc(-c4cnc(N)nc4)nc(N4CCOCC4)c3s2)cc1` [II-a-172, N-(4-((2-(2-aminopyrimidin-5-yl)-4-morpholinothieno[3,2-d]pyrimidin-6-yl)methoxy)phenyl)acrylamide], the IC50 at PI3Kα (p110α/p85α) fell in the range of 100 to 1000 nM. Also, the EC50 with Phospho-Akt(Ser473) was not above 10 nM.

Take `CC(C)=CC(=O)CCCC(=O)N1CCC(c2cc3nc(-c4cnc(N)nc4)cc(N4CCOCC4)c3s2)CC1` [II-g-6, 1-(4-(5-(2-aminopyrimidin-5-yl)-7-morpholinothieno[3,2-b]pyridin-2-yl)piperidin-1-yl)-7-methyloct-6-ene-1,5-dione]: the IC50 on PI3Kα (p110α/p85α) was in the range of 100 to 1000 nM. Moreover, in the experiment on Phospho-Akt(Ser473), the EC50 lay in the range of 100 to 1000 nM.

In the case of `C=CS(=O)(=O)N(C)Cc1cc2nc(-c3cccc(O)c3)nc(N3CCOCC3)c2s1` [II-a-29, N-((2-(3-hydroxyphenyl)-4-morpholinothieno[3,2-d]pyrimidin-6-yl)methyl)-N-methylethenesulfonamide], the EC50 with PI3K lay in the range of 100 to 500 nM. Also, the results for the IC50 on PI3Kγ (p120γ) and at PI3Kα (p110α/p85α) were 100 to 1000 nM and 10 to 100 nM, respectively.

For the molecule `C=CC(=O)NC1CCC(C(=O)N(C)Cc2cc3nc(-c4cccc(O)c4)nc(N4CCOCC4)c3s2)CC1` (racemic) [II-a-35, (±)-4-acrylamido-N-((2-(3-hydroxyphenyl)-4-morpholinothieno[3,2-d]pyrimidin-6-yl)methyl)-N-methylcyclohexanecarboxamide], the EC50 in the experiment on PI3K is 100 to 500 nM. Besides, the IC50 on PI3Kγ (p120γ) and at PI3Kα (p110α/p85α) was 100 to 1000 nM each time.

With `C=CC(=O)NCc1cccc(-c2cc3nc(-c4cccc(O)c4)nc(N4CCOCC4)c3s2)c1` [II-a-64, N-(3-(2-(3-hydroxyphenyl)-4-morpholinothieno[3,2-d]pyrimidin-6-yl)benzyl)acrylamide], on PI3Kα (p110α/p85α), the IC50 is less than 10 nM. Further, in the experiment on Phospho-Akt(Ser473), the EC50 was in the range of 10 to 100 nM.

Regarding `C/C=C/C(=O)CCC(=O)N1CCN(CC#Cc2cc3nc(-c4cccc(O)c4)nc(N4CCOCC4)c3s2)CC1` [II-a-48, (E)-1-(4-(3-(2-(3-hydroxyphenyl)-4-morpholinothieno[3,2-d]pyrimidin-6-yl)prop-2-ynyl)piperazin-1-yl) hept-5-ene-1,4-dione], in the experiment on PI3K, the EC50 is 20 to 100 nM. For the same molecule, the IC50 is more than 1000 nM on PI3Kγ (p120γ) and less than 10 nM at PI3Kα (p110α/p85α).

As to `C=CC(=O)NCCS(=O)(=O)N1CCN(Cc2cc3nc(-c4cccc(O)c4)nc(N4CCOCC4)c3s2)CC1` [II-a-25, N-(2-(4-((2-(3-hydroxyphenyl)-4-morpholinothieno[3,2-d]pyrimidin-6-yl)methyl)piperazin-1-ylsulfonyl)ethyl)acrylamide], the EC50 with PI3K lay in the range of 20 to 100 nM. Besides, the results for the IC50 at PI3Kγ (p120γ) and on PI3Kα (p110α/p85α) were 100 to 1000 nM and 10 to 100 nM, respectively.

For the molecule `C=C(C)C(=O)CCCC(=O)N1CCN(c2ccnc3ccc(/C=C4\SC(Nc5c(Cl)cccc5Cl)=NC4=O)cc23)CC1` [V-3, (Z)-1-(4-(6-((2-(2,6-dichlorophenylamino)-4-oxothiazol-5(4H)-ylidene)methyl)quinolin-4-yl)piperazin-1-yl)-6-methylhept-6-ene-1,5-dione], in the experiment on PI3K, the EC50 lay within 500 to 2000 nM. Further, the IC50 at PI3Kγ (p120γ) was more than 1000 nM; at PI3Kα (p110α/p85α), 100 to 1000 nM.

With `C=CC(=O)Nc1ccc(CN(C)Cc2cc3nc(-c4cnc(N)nc4)nc(N4CCOCC4)c3s2)cc1` [II-a-176, N-(4-((((2-(2-aminopyrimidin-5-yl)-4-morpholinothieno[3,2-d]pyrimidin-6-yl)methyl)(methyl)amino)methyl)phenyl)acrylamide], the IC50 at PI3Kα (p110α/p85α) was 10 to 100 nM. Also, the EC50 in the experiment with Phospho-Akt(Ser473) lay within 10 to 100 nM.

`C/C=C/C(=O)CCC(=O)N1CCC(C#Cc2cc3nc(-c4cccc(O)c4)nc(N4CCOCC4)c3s2)CC1` [II-a-89, (E)-1-(4-((2-(3-hydroxyphenyl)-4-morpholinothieno[3,2-d]pyrimidin-6-yl)ethynyl)piperidin-1-yl)hept-5-ene-1,4-dione]: at PI3Kα (p110α/p85α), the IC50 is less than 10 nM. In addition, the EC50 in the experiment with Phospho-Akt(Ser473) is 10 to 100 nM.

Regarding `C=CC(=O)Nc1ccc(C(=O)N2CC=C(c3cc4nc(-c5cnc(N)nc5)nc(N5CCOCC5)c4s3)CC2)cc1` [II-a-156, N-(4-(4-(2-(2-aminopyrimidin-5-yl)-4-morpholinothieno[3,2-d]pyrimidin-6-yl)-1,2,3,6-tetrahydropyridine-1-carbonyl)phenyl)acrylamide], the IC50 at PI3Kα (p110α/p85α) was in the range of 10 to 100 nM. Besides, the EC50 in the experiment on Phospho-Akt(Ser473) was not above 10 nM.

For `CC(C)=CC(=O)CCC(=O)NCCS(=O)(=O)N1CCN(Cc2cc3nc(-c4cccc(O)c4)nc(N4CCOCC4)c3s2)CC1` [II-a-28, N-(2-(4-((2-(3-hydroxyphenyl)-4-morpholinothieno[3,2-d]pyrimidin-6-yl)methyl)piperazin-1-ylsulfonyl)ethyl)-6-methyl-4-oxohept-5-enamide], in the experiment on PI3K, the EC50 was in the range of 20 to 100 nM. In addition, the IC50 at PI3Kγ (p120γ) and at PI3Kα (p110α/p85α) was 100 to 1000 nM in each case.

For the molecule `C=CC(=O)Nc1ccc(CCNC(=O)c2cc3nc(-c4cnc(N)nc4)nc(N4CCOCC4)c3s2)cc1` [II-a-154, N-(4-acrylamidophenethyl)-2-(2-aminopyrimidin-5-yl)-4-morpholinothieno[3,2-d]pyrimidine-6-carboxamide], at PI3Kα (p110α/p85α), the IC50 lay in the range of 10 to 100 nM. In the experiment with Phospho-Akt(Ser473), the EC50 was not above 10 nM.

On to `C=CC(=O)NCC(=O)N1CCN(Cc2cc3nc(-c4cccc5[nH]ncc45)nc(N4CCOCC4)c3s2)CC1` [II-a-6, N-(2-(4-((2-(1H-indazol-4-yl)-4-morpholinothieno[3,2-d]pyrimidin-6-yl)methyl)piperazin-1-yl)-2-oxoethyl)acrylamide], for which the EC50 in the experiment on PI3K was in the range of 2000 to 5000 nM. In addition, the IC50 at PI3Kγ (p120γ) was more than 1000 nM; at PI3Kα (p110α/p85α) it was 100 to 1000 nM.
